US20250332268A1, “CONJUGATE AND COMPOSITION AS WELL AS PREPARATION METHOD THEREFOR AND USE THEREOF” (priority 2022, published 2025)
Read-outs that look alike come from different tables or passages of the source. Non-standard residues stand in square brackets, D forms with d. Residues, ends and D or L forms follow the SMILES beside them. *: point of attachment. {Cy5} = Cy5 fluorescent dye; Dolaproine = CO[C@@H]([C@@H]1CCCN1)[C@@H](C)C(=O)O; Dil = CC[C@H](C)[C@H](NC)[C@@H](CC(=O)O)OC; X1 = C[C@@H](N*)[C@@H](O)c1ccccc1; NMeV = CN[C@H](C(=O)O)C(C)C

How the values were obtained:
[1] = system: U118MG orthotopic tumor (brain glioma); test: In vivo distribution in U118MG cell orthotopic tumor model mice, brain fluorescence imaging (Experimental Example 4); settings: 24 h and 48 h after administration; 3 mg/kg tail intravenous injection
Protocol: (§1) U118MG human glioma cells (purchased from Guangzhou Jennio Biotech Co., Ltd) were cultured in DMEM complete medium (MACGENE company, Cat No. CM15019) supplemented with 10% fetal bovine serum (FBS, RMBIO company) at 37° C. in an incubator containing 5% CO2/95% air.
(§2) The cells were digested with 0.25% pancreatic enzyme and collected. The supernatant was aspirated, and the cells were resuspended in DMEM medium supplemented with 10% FBS to formulate into cell culture medium with a concentration of 4×10^7 cells/mL.
(§3) Experimental animals were 6 NOD-SCID mice, male, 12 weeks old (purchased from SPF (Beijing) Biotechnology Co., LTD.). The above cell culture medium was inoculated into NOD-SCID mice. […]
(§4) The administration dosage of all animals was calculated based on their body weights, the administration volume was all 10 μL/g, the administration dosage was 3 mg/kg per animal (calculated based on the amount of aptamer), 2 mice were administrated in each group and designated as test group 4a and control group 4b, respectively. […]
(§5) 24 h after administration, one mouse in each group was respectively killed and brain tissue was taken, and the remaining mice were killed at 48 h after administration and brain tissues were taken. The brain tissues of mice were taken for fluorescence imaging in IVIS Lumina Series III.

[2] = system: A549 subcutaneous tumor (human lung adenocarcinoma cells); test: In vivo activity against A549 subcutaneous tumor model mice (Experimental Example 9); settings: administered D8, D12, D15, D19 (MMAE equivalent 0.3 mg/kg) and D46, D50, D54 (0.6 mg/kg); versus 9b (MMAE) and 9e (comparative conjugate 24)
Protocol: According to the method of experimental example 2, 30 mice inoculated with A549 subcutaneous tumors were obtained, and the mice were kept after injection.
Conjugate 20 and conjugate 21 were dissolved into conjugate solutions with a concentration of 1 mg/mL (calculated according to aptamer) with serum-free DMEM medium. Comparative conjugate 24 were dissolved into a conjugate solution with a concentration of 0.8 mg/mL (calculated according to aptamer). MMAE was dissolved into a solution with a concentration of 0.06 mg/mL with 10% DMSO+90% serum-free DMEM medium (volume ratio).
7 days after the inoculation of A549 human lung cancer cells, all mice were grouped, with 6 mice in each group, and each mouse was administrated. The day of administration was designated as D8. The mice were weighed before administration, and the administration volume was calculated by the mouse body weight. […]
For blank control group 9a, each mouse was administered with DMEM with a single administration volume of 5 μL/g mouse body weight; For control group 9b, each mouse was administered with MMAE with a single administration volume of 5 μL/g mouse body weight. It was calculated that a single administration dosage was 0.3 mg/kg; […]
Tumor volumes were measured on D1, D9, D16, D19, D22, D26, D30, D36, D40, D43, D47, D50, D54, and D57. The blank control group was measured on D50, and then the experiment was terminated. […]

[3] = system: U118MG glioma cells subcutaneous tumor; test: In vivo anti-tumor activity, tumor volume (Experimental Example 3); design: species or system NOD-SCID mice
Protocol: In this experimental example, the in vivo anti-tumor activity of the resulting conjugate 20 in mice was investigated.
The mice in this experiment were purchased from SPF Co., Ltd, the germline was NOD-SCID, the grade was SPF, male, 6-8 weeks old; U118MG glioma cells were purchased from Jennio.
The above culture medium containing U118MG cells was inoculated on subcutaneous site of the right forelimb of mice, and the injection volume was 100 μL. Each mouse was inoculated with 1×10^7 U118MG glioma cells.
The above resulting conjugate AP2 was formulated into 1.94 mg/mL of solution with PBS. Conjugate 20 was formulated into 0.625 mg/mL, 1.25 mg/mL and 2.06 mg/mL of solution with PBS, respectively (all calculated based on the amount of oligonucleotide). […]
For test group 3d, the above conjugate 20 solution with a concentration of 0.625 mg/mL was administered by tail intravenous injection with a single administration volume of 10 μL/g, a single administration dosage of […] (calculated based on the mass of oligonucleotide), wherein the dosage of MMAE contained was equivalent to 0.3 mg/kg. […]
Long diameter and short diameter of the tumors were measured by in vitro measurement method. The tumor volume was calculated according to the formula ½(long diameter×short diameter^2). […]

[4] = system: U118MG orthotopic tumor (brain glioma); settings: mouse, in vivo, iv, 3 mg/kg
Protocol: as §1, §2, §3, §4, §5

[5] = system: U118MG subcutaneous tumor; test: In vivo activity of long-interval administration against U118MG subcutaneous tumor model mice (Experimental Example 7); design: species or system NOD-SCID mice; settings: MMAE only, 0.1 mg/kg and 0.3 mg/kg subcutaneous on D8, D11, D15, D29, D32, D36
Protocol: According to the method of experimental example 2, 42 mice inoculated with U118MG subcutaneous tumor were obtained, and the mice were kept after injection.
MMAE was dissolved into solutions with a concentration of 0.03 mg/mL and 0.01 mg/mL with 10% DMSO+90% serum-free DMEM medium (volume ratio); conjugate 21 was dissolved into a solution with a concentration of 0.5 mg/mL and 0.165 mg/mL (calculated according to aptamer); and comparative conjugate 25 was dissolved into solutions with a concentration of 0.5 mg/mL and 0.165 mg/mL (calculated according to aptamer). […] The mice were weighed before administration, and the administration volume was calculated by weight.
For blank control group, each mouse was administered with DMEM medium with a single administration volume of 10 μL/g mouse body weight; For test group 7a, each mouse was administered with MMAE with a concentration of 0.01 mg/ml with a single administration volume of 10 μL/g mouse body weight. It was calculated that a single administration dosage was 0.1 mg/kg.
For test group 7b, each mouse was administered with conjugate 21 with a concentration of 0.165 mg/ml with a single administration volume of 10 μL/g mouse body weight. It was calculated that a single administration dosage was 1.65 mg/kg (the corresponding MMAE dosage was 0.1 mg/kg). […]

Molecule: CY5-UfCfUfAUfGGCfUfGCfCfGAUfCfUfGGUfCfUfCfCfAUfGUfACfGUf (UCUAUGGCUGCCGAUCUGGUCUCCAUGUACGU; 2'-fluoro at CU, RNA at AG, 5' {Cy5}, backbone not given here) [Comparative AP19]
- fluorescence signal in brain tissue [1]: no fluorescence signal at all in the brain

Molecule: MMAE-CmUmGmGmAmGmUmUmCmAmGmAmCmGmUmGmUmUmGmCmUmCmUmUmCmCmGmAmUmCmUmCm (DNA CUGGAGUUCAGACGUGUUGCUCUUCCGAUCUC; all 2'-O-methyl, backbone not given here; MMAE drug conjugated at 5' end via linker, further chemistry not fully specified) [Conjugate 20, dye group of AP2 replaced with MMAE; linking group 2-(phosphate ester group-(CH2)6—S—)-MC-Val-Cit-PAB]
- tumor volumes at each time period [2]: smaller than those of the control groups 9b and 9e

Molecule: CY5-CmUmGmGmAmGmUmUmCmAmGmAmCmGmUmGmUmUmGmCmUmCmUmUmCmCmGmAmUmCmUmCm (DNA CUGGAGUUCAGACGUGUUGCUCUUCCGAUCUC; all 2'-O-methyl, 5' {Cy5}, backbone not given here) [AP2]
- tumor volume over time ([3]; control group 3b, 15.5 mg/kg tail intravenous injection on D8, D12, D16, D20): increased rapidly
- fluorescence signal in brain tissue [4]: strong fluorescence signals at the inoculation tumor location

Molecule: CC[C@H](C)[C@@H]([C@@H](CC(=O)N1CCC[C@H]1[C@H](OC)[C@@H](C)C(=O)N[C@H](C)[C@@H](O)c1ccccc1)OC)N(C)C(=O)[C@@H](NC(=O)[C@@H](NC)C(C)C)C(C)C [MMAE, Monomethyl auristatin E, reference compound] (H-[NMeV]V[Dil][Dolaproine]-X1)
- increase rate of tumor volume ([3]; control group 3c, 0.3 mg/kg tail intravenous injection on D8, D12, D16, D20): increase rate of tumor volume was decreased
- increase rates of tumor volume [5]: slightly decreased

Molecule: MMAE-CmUmGmGmAmGmUmUmCmAmGmAmCmGmUmUmGmUmGmCmUmCmUmUm (CUGGAGUUCAGACGUUGUGCUCUU; all 2'-O-methyl, backbone not given here; MMAE drug conjugated at 5' end via linker, further chemistry not fully specified) [Conjugate 21]
- tumor volumes at each time period [2]: smaller than those of the control groups 9b and 9e
